{"source": "ChEMBL document CHEMBL5729064", "about": "“Benzofuran, benzothiophene, and indole analogs that inhibit the formation of tau oligomers and their method of use” (2022)", "biological_target": "Microtubule-associated protein tau (Homo sapiens, UniProt P10636)", "sequence (P10636 whole entry)": "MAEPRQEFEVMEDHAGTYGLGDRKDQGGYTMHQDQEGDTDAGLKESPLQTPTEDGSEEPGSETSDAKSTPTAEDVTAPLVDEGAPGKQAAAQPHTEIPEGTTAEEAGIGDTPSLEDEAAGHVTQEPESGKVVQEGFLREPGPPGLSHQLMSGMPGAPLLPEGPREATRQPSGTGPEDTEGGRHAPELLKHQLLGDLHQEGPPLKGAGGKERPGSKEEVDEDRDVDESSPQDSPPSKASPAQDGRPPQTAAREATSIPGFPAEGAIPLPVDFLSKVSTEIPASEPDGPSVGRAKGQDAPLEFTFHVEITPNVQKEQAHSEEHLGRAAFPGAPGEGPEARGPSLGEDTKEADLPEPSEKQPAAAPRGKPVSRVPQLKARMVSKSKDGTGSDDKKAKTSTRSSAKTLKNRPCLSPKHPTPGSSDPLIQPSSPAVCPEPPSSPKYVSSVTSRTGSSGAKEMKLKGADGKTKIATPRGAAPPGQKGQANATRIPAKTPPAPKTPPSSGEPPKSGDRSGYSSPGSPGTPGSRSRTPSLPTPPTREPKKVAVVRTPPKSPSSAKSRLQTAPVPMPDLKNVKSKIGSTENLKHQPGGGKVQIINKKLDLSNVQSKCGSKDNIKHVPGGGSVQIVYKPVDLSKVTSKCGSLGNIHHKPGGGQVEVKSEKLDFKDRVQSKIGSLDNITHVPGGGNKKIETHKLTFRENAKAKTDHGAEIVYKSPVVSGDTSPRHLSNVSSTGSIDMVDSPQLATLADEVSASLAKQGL", "experiment": "AlphaLisa Assay: Tau target (equal mixture of each construct at 300 nM) was prepared in buffer (Tris-HCl pH 7.4) and was incubated in 96-well plates at room temperature for 4 hours with vehicle control (DMSO) and a dose range of a compound of the disclosure (0.098 uM-50 uM). AlphaLisa acceptor beads & donor beads with ligands to the epitope tags (Perkin Elmer) were diluted (final 20 ug/mL per bead) in bead buffer (25 mM HEPES pH 7.4, 100 mM NaCl, 0.1% Tween-20), added to the wells and incubated 1 hour at room temperature. The positive control (non-incubated target) & blank (no tau) were prepared and mixed with beads in bead buffer and the plate was read immediately using the EnVision plate reader (Perkin Elmer).", "data": [{"smiles": "CC(=O)CCc1oc2ccc(-c3cccc(O)c3)cc2c1-c1ccc(C)o1", "values": [{"measurement": "IC50", "result": 1390, "unit": "nM"}]}, {"smiles": "CC(=O)CCc1oc2cc(-c3cccnc3)ccc2c1-c1ccc(C)o1", "values": [{"measurement": "IC50", "result": 4020, "unit": "nM"}]}, {"smiles": "Cc1ccc(-c2c(CCc3nc4ccccc4[nH]3)oc3ccc(Br)cc23)o1", "values": [{"measurement": "IC50", "result": 2060, "unit": "nM"}]}, {"smiles": "CC(=O)CCc1oc2ccc(-c3cccnc3)cc2c1-c1ccc(C)o1", "values": [{"measurement": "IC50", "result": 7550, "unit": "nM"}]}, {"smiles": "COc1ccc(-c2ccc3oc(CCC(C)=O)c(-c4ccc(C)o4)c3c2)cn1", "values": [{"measurement": "IC50", "result": 1270, "unit": "nM"}]}, {"smiles": "COc1cc(-c2ccc3c(-c4ccc(C)o4)c(CCC(C)=O)oc3c2)ccn1", "values": [{"measurement": "IC50", "result": 1570, "unit": "nM"}]}, {"smiles": "COc1cc(-c2ccc3oc(CCC(C)=O)c(-c4ccc(C)o4)c3c2)ccn1", "values": [{"measurement": "IC50", "result": 100, "unit": "nM"}]}, {"smiles": "Cc1ccc(-c2c(CCC(C)(C)O)oc3ccc(Br)cc23)o1", "values": [{"measurement": "IC50", "result": 100, "unit": "nM"}]}, {"smiles": "CC(=O)CCc1oc2ccc(-c3ccncc3)cc2c1-c1ccc(C)o1", "values": [{"measurement": "IC50", "result": 6350, "unit": "nM"}]}, {"smiles": "COc1cccc(-c2ccc3oc(CCC(C)=O)c(-c4ccc(C)o4)c3c2)c1", "values": [{"measurement": "IC50", "result": 3030, "unit": "nM"}]}, {"smiles": "Cc1ccc(C(C)(O)CCc2oc3ccc(Br)cc3c2-c2ccc(C)o2)cc1", "note": "(stereo unspecified)", "values": [{"measurement": "IC50", "result": 1930, "unit": "nM"}]}]}
